Source: US20250059610A1, “METHODS OF TREATING TUMOR” (priority 2017, published 2025)

Experiments:
[1] = system: recurrent small cell lung cancer (SCLC); test: Clinical trial of nivolumab alone or with ipilimumab in SCLC, exploratory TMB analysis; assay type: in vivo, human
Excerpt: Subjects were selects who had previously been diagnosed with SCLC, and who had previously received at least one prior platinum-containing regimen (FIG. 23).
The primary objective was to measure the objective response rate (ORR) by per RECIST v1.1. Secondary objectives included monitoring safety, overall survival (OS), progression free survival (PFS), and duration of response (DOR). Prespecified exploratory objectives included biomarker analysis and health status using the EQ-5D instrument.
TMB was determined by whole exome sequencing, using an Illumina HiSeq 2500 using 2×100-bp paired-end reads, and calculated as the total number of nonsynonymous missense mutations in the tumor. For exploratory analyses, patients were divided into 3 subgroups based on TMB tertile.

[2] = monotherapy, every two weeks; cited from earlier work
[3] = system: NSCLC; conditions: cited from earlier work
[4] = system: metastatic or surgically unresectable urothelial carcinoma (UC); test: Single-arm phase II study of nivolumab (CheckMate 275), TMB analysis; assay type: in vivo, human
Description: Tumor DNA from pretreatment archival tumor tissue and matched whole blood samples was profiled by whole exome sequencing. TMB was defined as the total number of missense somatic mutations per tumor, and was evaluated as a continuous variable and by tertiles (missense count: high 167, medium 85-166, low <85). Cox models were used to explore the association between TMB and progression-free survival (PFS) and overall survival (OS); and logistic regression for objective response rate (ORR). Tumor PD-ligand 1 (PD-L1) expression was assessed by Dako PD-L1 immunohistochemistry 28-8 assay and was categorized as <1%.

[5] = biological target: T1, PD-1 (Homo sapiens, UniProt Q15116); conditions: across all doses, 0.3 mg/kg to 10 mg/kg; cited from earlier work
T1 construct: PD-1 occupancy appears to be dose-independent in this dose range
T1 sequence (Q15116 25-288): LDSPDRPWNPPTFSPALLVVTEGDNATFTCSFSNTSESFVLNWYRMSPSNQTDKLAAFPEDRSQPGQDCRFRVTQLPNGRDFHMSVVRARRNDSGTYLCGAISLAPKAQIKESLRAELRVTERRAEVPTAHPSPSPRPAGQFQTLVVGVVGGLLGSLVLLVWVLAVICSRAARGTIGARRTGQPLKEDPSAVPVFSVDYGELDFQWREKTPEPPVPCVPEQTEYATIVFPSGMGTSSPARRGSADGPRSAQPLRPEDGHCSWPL

[6] = system: stage IV or recurrent NSCLC; test: Multi-part phase 3 study of first-line nivolumab plus ipilimumab versus chemotherapy: efficacy; assay type: in vivo, human
Description: Patients had chemotherapy-naive, stage IV or recurrent NSCLC.
Adult patients with PD-L1-histologically confirmed squamous or nonsquamous stage IV/recurrent NSCLC and Eastern Cooperative Oncology Group (ECOG) performance status (Oken M. M., et al. Am J Clin Oncol 5:649-55 (1982)) of 0 or 1 who had received no prior systemic anticancer therapy as primary therapy for advanced or metastatic disease were eligible for the study. All patients underwent imaging to screen for brain metastases. Patients with known EGFR mutations or ALK translocations sensitive to targeted therapy, an autoimmune disease, or untreated central nervous system metastases were excluded.
All treatments continued until disease progression, unacceptable toxicity, or completion per protocol (up to 2 years for immunotherapy). Crossover between treatment arms within the study was not permitted.
Part 1 of this study had two co-primary endpoints.
Hazard ratios of PFS with associated two-sided confidence intervals were estimated using an unstratified Cox proportional hazard model, with treatment group as a single covariate. A multivariate analysis was prespecified in patients with TMB≥10 mutations/Mb to assess the influence of known prognostic baseline factors on PFS. […] Survival curves were estimated using Kaplan-Meier methodology.

[7] = Phase 3 study of first-line nivolumab versus platinum-based chemotherapy: safety (adverse events)
Description: (§1) Maintenance pemetrexed was allowed in patients with nonsquamous NSCLC who had stable disease or response after cycle 4. […] Concomitant systemic corticosteroid treatment (<3-week courses) was allowed for non-autoimmune conditions, including but not limited to treatment-related adverse events (AEs) with a potential immunologic cause.
(§2) Tumor response was assessed every 6 weeks until week 48 and every 12 weeks thereafter. Safety assessments included the recording of AEs, graded according to the National Cancer Institute Common Terminology Criteria for Adverse Events, version 4.0.

[8] = system: stage IV or recurrent NSCLC; test: Phase 3 study of first-line nivolumab versus platinum-based chemotherapy: efficacy; assay type: in vivo, human
Excerpt: The primary endpoint was progression-free survival (PFS) per blinded independent central review in patients with ≥5% PD-L1 expression.
Eligible adult patients had histologically confirmed squamous or nonsquamous stage IV/recurrent NSCLC, ECOG PS 0-1, and measurable disease per RECIST 1.1,^15 and had received no prior systemic anticancer therapy as primary therapy for advanced or metastatic disease. Patients with central nervous system metastases were eligible if adequately treated and neurologically returned to baseline ≥2 weeks before randomization. Eligible patients had to be off corticosteroids or on a stable or decreasing dose of ≤10 mg daily prednisone (or equivalent). […] Patients with an autoimmune disease or known EGFR mutations or ALK translocations sensitive to available targeted therapy were excluded. Only patients with ≥1% PD-L1 expression were randomized.
as §1
Randomization was stratified by PD-L1 expression (<5% vs. ≥5%) and tumor histology (squamous vs. nonsquamous).
The primary endpoint was PFS based on assessment by blinded independent central review (BICR) in patients with ≥5% PD-L1 expression. Secondary endpoints included PFS per BICR among all randomized patients (≥1% PD-L1 expression), OS among patients with ≥5% PD-L1 expression and among all randomized patients, and ORR per BICR among patients with ≥5% PD-L1 expression.
as §2
For efficacy analyses, patients were grouped according to TMB tertile distribution.
Comparison of PFS and OS between treatment groups was performed by two-sided log-rank tests stratified by PD-L1 expression level (≥5% vs. <5%; for endpoints in all randomized patients) and tumor histology. A stratified Cox proportional-hazards model including the randomized treatment arm as a single covariate was used to estimate HRs and their associated 95% CIs. The Kaplan-Meier method was used to estimate survival curves. ORRs were compared between treatment arms with a two-sided, stratified Cochran-Mantel-Haenszel test. The Clopper-Pearson method was used to estimate ORRs and their exact 95% CIs.

[9] = system: NSCLC with ≥50% PD-L1 expression; conditions: first-line; cited from earlier work
[10] = 10 patients with ≥5% PD-L1 expression, monotherapy cohort
[11] = exploratory subgroup with ≥50% PD-L1 expression
[12] = patients with high TMB (upper tertile)
[13] = patients with ≥5% PD-L1 expression
[14] = ≥5% PD-L1 expression, responders

## Nivolumab
[1]; ITT patients
  ORR: 11.4%
[1]; TMB-evaluable patients
  ORR: 11.3%
[1]; high TMB
  ORR: about 21.3%
  OS at 1 year: 35.2%
  PFS at 1 year: 21.2%
  average PFS: about 1.4%
  median OS: about 5.4%
[1]; initial results of the SCLC trial
  patients with overall survival over 2 years: 14%
[1]; low TMB
  ORR: about 4.8%
  OS at 1 year: 22.1%
  average PFS: about 1.3%
  median OS: about 3.1%
[1]; medium TMB
  ORR: about 6.8%
  OS at 1 year: about 26.0%
  PFS at 1 year: 3.15%
  average PFS: about 1.3%
  median OS: about 3.9%
[2]
  maximum tolerated dose (MTD), not reached up to: > 10 mg/kg
[3]; [10]
  PFS rate at 24 weeks: 70%
  median PFS: 10.6 months
  objective response rate (ORR): 50%
[3]; patients with ≥1% PD-L1 expression
  ORR: 28%
[4]; All Pts
  OS, median: 8.57 months
  PFS, median: 2.00 month
[4]; All Pts (N 270)
  ORR: 20.0%
[4]; All Pts, PD-L1 1%
  ORR: 25.0%
  OS, median: 11.63 months
  PFS, median: 3.53 month
[4]; All Pts, PD-L1 <1%
  ORR: 15.8%
  OS, median: 5.95 months
  PFS, median: 1.87 month
[4]; TMB High
  ORR: 31.9%
  OS, median: 11.63 months
  PFS, median: 3.02 month
[4]; TMB High, PD-L1 1%
  ORR: 33.3%
  OS, median: 10.60 months
  PFS, median: 3.52 month
[4]; TMB High, PD-L1 <1%
  ORR: 30.4%
  PFS, median: 3.02 month
[4]; TMB Low
  ORR: 10.9%
  OS, median: 5.72 months
  PFS, median: 1.91 month
[4]; TMB Low, PD-L1 1%
  ORR: 23.8%
  OS, median: 8.57 months
  PFS, median: 3.12 month
[4]; TMB Low, PD-L1 <1%
  ORR: 0%
  OS, median: 4.96 months
  PFS, median: 1.77 month
[4]; TMB Medium
  ORR: 17.4%
  OS, median: 9.66 months
  PFS, median: 1.87 month
[4]; TMB Medium, PD-L1 1%
  ORR: 12.0%
  OS, median: 11.30 months
  PFS, median: 1.94 month
[4]; TMB Medium, PD-L1 <1%
  ORR: 23.8%
  OS, median: 4.53 months
  PFS, median: 1.77 month
[4]; TMB Subgroup
  OS, median: 7.23 months
  PFS, median: 2.00 month
[4]; TMB Subgroup (N 139)
  ORR: 20.1%
[4]; TMB Subgroup, PD-L1 1%
  ORR: 22.9%
  OS, median: 10.28 months
  PFS, median: 2.30 month
[4]; TMB Subgroup, PD-L1 <1%
  ORR: 17.4%
  OS, median: 5.68 months
  PFS, median: 1.87 month
[5]
  mean PD-1 occupancy rate: 85%
  mean plateau PD-1 occupancy: 72%
[6]; TMB≥10 mutations/Mb and ≥1% PD-L1 expression
  median PFS: 4.2 months
[6]; TMB≥13 mutations/Mb and ≥1% PD-L1 expression
  median PFS: 4.2 months
[7]; Grade 3-4
  Treatment-related adverse events: Any event: 47 (17.6) n (%)
[7]; in vivo
  Not continuing in the treatment period: Study drug toxicity: 27 (10.1) n (%)
  Treatment-related AEs leading to discontinuation of study drug: 9.7%
  Treatment-related adverse events leading to discontinuation: Adrenal insufficiency: 1 (0.4) n (%)
  Treatment-related adverse events leading to discontinuation: Alanine aminotransferase increased: 5 (1.9) n (%)
  Treatment-related adverse events leading to discontinuation: Aphasia: 1 (0.4) n (%)
  Treatment-related adverse events leading to discontinuation: Aspartate aminotransferase increased: 5 (1.9) n (%)
  Treatment-related adverse events leading to discontinuation: Cholestasis: 1 (0.4) n (%)
  Treatment-related adverse events leading to discontinuation: Colitis: 2 (0.7) n (%)
  Treatment-related adverse events leading to discontinuation: Confused state: 1 (0.4) n (%)
  Treatment-related adverse events leading to discontinuation: Hypersensitivity: 1 (0.4) n (%)
  Treatment-related adverse events leading to discontinuation: Interstitial lung disease: 1 (0.4) n (%)
  Treatment-related adverse events leading to discontinuation: Multiple organ dysfunction: 1 (0.4) n (%)
  Treatment-related adverse events leading to discontinuation: Nausea: 1 (0.4) n (%)
  Treatment-related adverse events leading to discontinuation: Pericardial effusion malignant: 1 (0.4) n (%)
  Treatment-related adverse events leading to discontinuation: Pneumonitis: 3 (1.1) n (%)
  Treatment-related adverse events leading to discontinuation: Rash: 1 (0.4) n (%)
  Treatment-related adverse events leading to discontinuation: Rash maculopapular: 1 (0.4) n (%)
  Treatment-related adverse events leading to discontinuation: Rash papular: 1 (0.4) n (%)
  Treatment-related adverse events leading to discontinuation: Stevens-Johnson syndrome: 1 (0.4) n (%)
  Treatment-related adverse events leading to discontinuation: Transaminases increased: 1 (0.4) n (%)
  Treatment-related adverse events: Any event: 190 (71.2) n (%)
  Treatment-related adverse events: Leukopenia: 0 n (%)
  Treatment-related adverse events: Neutropenia: 0 n (%)
  Treatment-related adverse events: Neutrophil count decreased: 1 (0.4) n (%)
  Treatment-related serious adverse events: Anemia: 0 n (%)
  Treatment-related serious adverse events: Aspartate aminotransferase increased: 6 (2.2) n (%)
  Treatment-related serious adverse events: Febrile neutropenia: 0 n (%)
  Treatment-related serious adverse events: Thrombocytopenia: 0 n (%)
[8]; TMB High
  Complete or partial response: 22 (46.8) n (%)
  Progressive disease: 7 (14.9) n (%)
  Response could not be determined: 3 (6.4) n (%)
  Stable disease: 15 (31.9) n (%)
[8]; TMB Low
  Complete or partial response: 11 (17.7) n (%)
  Progressive disease: 21 (33.9) n (%)
  Response could not be determined: 5 (8.1) n (%)
  Stable disease: 25 (40.3) n (%)
[8]; TMB Low/medium (pooled)
  Complete or partial response: 25 (22.5) n (%)
  Progressive disease: 32 (28.9) n (%)
  Response could not be determined: 9 (8.1) n (%)
  Stable disease: 45 (40.5) n (%)
[8]; TMB Medium
  Complete or partial response: 14 (28.6) n (%)
  Progressive disease: 11 (22.4) n (%)
  Response could not be determined: 4 (8.2) n (%)
  Stable disease: 20 (40.8) n (%)
[8]; [11]
  ORR: 34.1%
  OS hazard ratio, nivolumab versus chemotherapy: 0.90
  PFS hazard ratio, nivolumab versus chemotherapy: 1.07
[8]; patients with high TMB
  median PFS: 9.7 months
[8]; [12]
  PFS hazard ratio, nivolumab versus chemotherapy: 0.62
  objective response rate (ORR): 46.8%
[8]; [13]
  OS hazard ratio, nivolumab versus chemotherapy: 1.02
  Objective response, % of patients (95% CI): 26.1 (20.3-32.5) %
  Objective response, No. of patients: 55
  PFS hazard ratio, nivolumab versus chemotherapy: 1.15
  median OS: 14.4 months
  median PFS: 4.2 months
[8]; patients with ≥5% PD-L1 expression, listed as nivolumab
  Objective response, % of patients (95% CI): 26.1%
[8]; ≥5% PD-L1 expression
  Best overall response: Complete response: 4 (1.9) no. (%)
  Best overall response: Could not be determined: 17 (8.1) no. (%)
  Best overall response: Partial response: 51 (24.2) no. (%)
  Best overall response: Progressive disease: 58 (27.5) no. (%)
  Best overall response: Stable disease: 81 (38.4) no. (%)
  Proportion of patients with a best response of progressive disease: 27.5%
[8]; ≥5% PD-L1 expression, nivolumab versus chemotherapy
  Objective response, estimated odds ratio (95% CI): 0.70 (0.46-1.06)
[8]; [14]
  Duration of response, median: 12.1 mo
  Time to response, median: 2.8 mo
  Time to response, range: 1.2-13.2 mo

## ipilimumab: fully human, IgG1 monoclonal antibody that blocks the binding of CTLA-4 to its B7 ligands
[1]; high TMB
  ORR: ~46.2%
[1]; low TMB
  ORR: ~22.2%
[1]; medium TMB
  ORR: ~16.0%

## pembrolizumab
[9]
  ORR: 45%
  median PFS: 10.3 months
